Laboratory results reported in PMC6286348, “Inhibitor binding mode and allosteric regulation of Na^+-glucose symporters” (Nature Communications, 2018).
Residue numbers refer to the chain shown, from its start.

How the values were obtained:
hSGLT1 S393A/C = system: hSGLT1 S393A/C; design: method as in PMID 22159082; conditions: oocytes, 22 °C; cited from earlier work
hSGLT1 S392A/C = system: hSGLT1 S392A/C; design: method as in PMID 22159082; conditions: oocytes, 22 °C; cited from earlier work
hSGLT1 wild-type = target: T1, hSGLT1 wild-type (Homo sapiens, UniProt P13866); assay: SGLT current measurement (two electrode voltage clamp) in oocytes, hSGLT1 wild-type; assay type: cell-based; conditions: apparent affinity from αMDG current vs external Na^+, 10 mM αMDG, 22 °C
T1 construct: expressed in transfected cells; host or cells: Xenopus laevis oocytes injected with cRNA
T1 sequence (P13866 1-664): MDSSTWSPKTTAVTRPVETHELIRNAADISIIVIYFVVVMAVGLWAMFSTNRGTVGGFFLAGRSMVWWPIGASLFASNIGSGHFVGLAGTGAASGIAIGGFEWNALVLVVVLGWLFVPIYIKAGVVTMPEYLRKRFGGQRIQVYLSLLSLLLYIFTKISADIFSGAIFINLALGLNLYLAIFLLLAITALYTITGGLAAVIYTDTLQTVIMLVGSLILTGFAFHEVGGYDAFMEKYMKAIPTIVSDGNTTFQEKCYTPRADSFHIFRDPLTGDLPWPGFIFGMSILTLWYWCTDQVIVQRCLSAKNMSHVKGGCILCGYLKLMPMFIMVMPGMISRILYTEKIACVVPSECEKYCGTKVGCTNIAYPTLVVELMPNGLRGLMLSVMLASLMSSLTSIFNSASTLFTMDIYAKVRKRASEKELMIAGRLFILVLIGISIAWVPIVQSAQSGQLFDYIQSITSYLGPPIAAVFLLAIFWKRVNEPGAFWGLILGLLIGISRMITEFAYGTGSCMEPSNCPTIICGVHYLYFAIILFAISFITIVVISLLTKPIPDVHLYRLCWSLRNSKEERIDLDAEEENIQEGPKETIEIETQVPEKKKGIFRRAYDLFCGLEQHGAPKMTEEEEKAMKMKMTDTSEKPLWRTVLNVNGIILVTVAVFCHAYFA
Protocol: (§1) Xenopus laevis (Nasco) oocytes (V–VI) were prepared as previously described[20] and injected with 50 nl of cRNA (1 μg/μl). […] Briefly, oocytes were incubated for 30 min in the presence of 50 μM αMDG (5 μM [^14C]αMDG) in a buffer containing (in mM) 100 NaCl, 2 KCl, 1 MgCl2, 1 CaCl2, and 10 N-(2-hydroxyethyl)piperazine-N′-(2-ethanesulfonic acid) (HEPES)/Tris (pH 7.5). After incubation, oocytes were rinsed thoroughly with ice-cold buffer containing (mM) 100 choline Cl^–, 2 KCl, 1 MgCl2, 1 CaCl2, and 10 HEPES/Tris (pH 7.5), individually lysed with 5% sodium dodecyl sulfate, and assayed for radioactivity.
(§2) Injected oocytes were incubated at 18 °C, and after 3–4 days, two electrode voltage clamp experiments were performed as previously described. Briefly, SGLT inward glucose currents were measured as a function of the external Na^+ (0–100 mM NaCl), sugar (0–100 mM αMDG), and inhibitors (0.001–100 μM). Steady-state and hSGLT1 capacitive currents were recorded using voltage steps from a holding voltage, Vh of −60 mV, to voltages in the range of −180 to +50 mV in 20 mV increments. The apparent affinity of αMDG, K0.5, was estimated from plots of the inward current as a function of the external αMDG concentration. […] The Na^+-to-αMDG stoichiometry was determined from the reversal potential measurements using the Gibbs free energy as previously described. […]

hSGLT1 T395A = target: T2, hSGLT1 T395A (Homo sapiens, UniProt P13866, T395A); assay: SGLT current measurement in oocytes, hSGLT1 T395A; assay type: cell-based; conditions: 22 °C
T2 construct: expressed in transfected cells; host or cells: Xenopus laevis oocytes injected with cRNA
T2 sequence (P13866 1-664 T395A): T1 sequence (P13866 1-664) with T395A
Protocol: as §1, §2

## [Na+] [Na^+]
hSGLT1 S393A/C
  K0.5 Na^+: 32 ± 3[20] mM
hSGLT1 S392A/C
  K0.5 Na^+: 122 ± 12[20] mM
hSGLT1 wild-type
  K0.5 Na^+: 36 ± 1 mM
hSGLT1 T395A
  K0.5 Na^+: 104 ± 50 mM
